Results reported in PMC7397466, “Expression, purification and crystal structure determination of a ferredoxin reductase from the actinobacterium Thermobifida fusca” (Acta Crystallographica. Section F, Structural Biology …, 2020).

Biological target: T1, FdR9 (Thermobifida fusca, UniProt Q47QF8)
T1 construct: gene Tfu_1273
Assay: X-ray crystal structure, […] Å
Format: binding
Conditions: copurified cofactor; crystals at pH 6.5, 298 K

T1 sequence (Q47QF8 entry or part of it): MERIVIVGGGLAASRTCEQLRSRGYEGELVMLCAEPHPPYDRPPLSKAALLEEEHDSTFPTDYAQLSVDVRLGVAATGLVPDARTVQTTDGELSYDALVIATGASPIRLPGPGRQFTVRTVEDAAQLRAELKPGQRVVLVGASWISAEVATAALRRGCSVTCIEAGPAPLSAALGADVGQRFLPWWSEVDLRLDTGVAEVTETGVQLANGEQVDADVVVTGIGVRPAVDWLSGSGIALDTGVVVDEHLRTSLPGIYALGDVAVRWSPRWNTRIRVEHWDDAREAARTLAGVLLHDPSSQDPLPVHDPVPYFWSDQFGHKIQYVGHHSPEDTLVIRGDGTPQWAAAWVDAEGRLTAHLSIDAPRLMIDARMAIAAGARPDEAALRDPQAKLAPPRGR

Cc1cc2nc3c(=O)[nH]c(=O)nc-3n(C[C@H](O)[C@H](O)[C@H](O)COP(=O)(O)OP(=O)(O)OC[C@H]3O[C@@H](n4cnc5c(N)ncnc54)[C@H](O)[C@@H]3O)c2cc1C [FAD]
X-ray crystal structure, 1.9 Å: The resulting electron-density map allowed the identification of the FAD molecule bound to the reductase
